From US8022090B2, “Vitamin C composition stabilized with cationic material, anionic material and caffeic acid derivative” (The Faceshop Korea Co., Ltd, priority 2007, dated 2011)

Assay: solubility measurement in purified water and ethanol
Details: for solubility: ethanol (25° C.); for density up to which dissolved: 25° C.

O=C(O)/C=C/c1ccc(O)c(O)c1 [caffeic acid]
solubility (density 1 mg/mL): dissolved
solubility (density 10 mg/mL): dissolved
density up to which dissolved (ethanol): ≥ 10 mg/mL
density up to which dissolved (purified water): not dissolved
